# Tests used:
# [1] = system: taste bud organoids from anterior tongue epithelial tissue; test: Differentiation into taste cells in anterior tongue taste bud organoids, immunofluorescence staining of taste cell markers; type: cell-based, mouse
# Procedure: (§1) The tongue was collected from a mouse, and dispase II enzyme (2 mg/mL) (Roche, cat #4942078001) diluted in physiological saline was injected into the space between the epithelium and subepithelial connective tissue to expand the tongue tissue ((2) in FIG. 1), and the expanded tongue tissue was cultured in dispase II enzyme dilution at 37° C. for 30 minutes. The epithelial layer is peeled off from the subepithelial connective tissue to separate the epithelial lamina therefrom, and it is cut into as small an area as possible using tools such as sterilized surgical scissors or a knife in trypsin/EDTA (Gibco, cat #25200072) solution. The finely cut tissues were cultured at 37° C. for 30 minutes. Thereafter, the finely cut tissues are subjected to pressure by continuous pipetting to extract cells from the tissue and form a single cell suspension. The cell pellets obtained by centrifuging this suspension are embedded in an extracellular matrix such as Matrigel at an appropriate ratio.
# (§2) All culture media are based on basic culture medium (DMEM/F12+1×GlutaMax+1×HEPES+1×N2 supplement+1×B27 supplement+1×penicillin/streptomycin).
# (§3) The single cells embedded in the Matrigel were cultured in differentiation medium 1 (FIRNY+SAG) for 4 days, then cultured for 10 days, while replacing the culture medium with differentiation medium 2 (FIRN+SAG+CHIR_SU5402) and changing the medium culture every 2-3 days.
# In culturing taste bud organoids from anterior tongue epithelial tissue, it was confirmed by immunofluorescence staining that when SAG-containing basic culture medium was treated with CHIR99021 (CHIR), which stimulates the Wnt and Notch signaling pathways, the differentiation efficiency into type 1, type 2 and type 3 taste cells all increased (FIG. 4).
# In order to confirm the optimization of the expression efficiency of markers for cells that make up taste buds in organoids and the differentiation efficiency into cells that make up taste buds by components other than CHIR, CHIR was added after the first 3 days of culture, and organoids were cultured in culture medium in which FGF was removed or SU5402 was additionally added. As a result, it was confirmed by immunofluorescence staining that when FGF was removed or SU5402 was additionally input after 3 days of culture, the differentiation efficiency into type 2 and type 3 taste cells increased (FIG. 6).
# [2] = system: taste bud organoids from anterior tongue epithelial tissue; test: Culture efficiency (growth efficiency, size) of taste bud organoids from anterior tongue epithelial tissue; type: cell-based, mouse; conditions: added alone or in combination to basic culture medium supplemented with R-spondin1 and noggin; SAG added under all these conditions (FIG. 2)
# Procedure: as §1, §2, §3
compound,measurement,setting,value
Cc1cnc(-c2cnc(NCCNc3ccc(C#N)cn3)nc2-c2ccc(Cl)cc2Cl)[nH]1 [CHIR99021],"differentiation efficiency into type 1, type 2 and type 3 taste cells","[1]; SAG-containing basic culture medium treated with CHIR99021, immunofluorescence staining (FIG. 4)",all increased
same,"differentiation efficiency into type 1, type 2 and type 3 taste cells by CHIR-treated time","[1]; treated with CHIR on days 3, 5 or 7, immunofluorescence staining (FIG. 5)","the earlier treatment with CHIR, the higher the differentiation efficiency"
Cc1c[nH]c(/C=C2\C(=O)Nc3ccccc32)c1CCC(=O)O [SU5402],differentiation efficiency into type 2 and type 3 taste cells,"[1]; CHIR added after the first 3 days of culture, SU5402 additionally input after 3 days, immunofluorescence staining (FIG. 6)",increased
"IGF1: insulin-like growth factor 1, protein that regulates cell growth, proliferation and differentiation",growth efficiency or size of the organoid itself,[2],no change
"EGF: growth factor added to the basic culture medium (NSDSECPLSHDGYCLHDGVCMYIEALDKYACNCVVGYIGERCQYRDLKWWELR; UniProt P01133 971-1023, looked up)",growth efficiency or size of the organoid itself,[2],no change
CNC1CCC(N(Cc2cccc(-c3ccncc3)c2)C(=O)c2sc3ccccc3c2Cl)CC1 (stereo not drawn) [SAG],growth efficiency or size of the organoid itself,[2],no change
same,"differentiation into type 1, type 2 and type 3 taste cells","[1]; SAG added to basic culture medium with R-spondin1 and noggin, with or without EGF, FGF2, IGF1 (FIG. 3)","differentiation into type 1, type 2 and type 3 taste cells was confirmed"
"FGF2: fibroblast growth factor 2, protein that regulates cell growth, proliferation and differentiation",growth efficiency or size of the organoid itself,[2],no change
same,differentiation efficiency into taste cells,"[1]; growth factor added to SAG-containing medium with R-spondin1 and noggin, immunofluorescence staining (FIG. 3)",differentiation efficiency increased

# Source: patent publication US20240254439A1, “METHOD FOR PREPARING TASTE BUD ORGANOIDS USING ANTERIOR TONGUE EPITHELIAL CELLS” (Korea University Research and Business Foundation, priority 2023, published 2024)
